Measurements from patent US9487494B2, “Cyclic hydrocarbon compounds for the treatment of diseases” (LEO PHARMA A/S, priority 2007, dated 2016).

Key:
[1] = target: recombinant human P450 2D6 (Homo sapiens (Human), UniProt P10635); assay: Screening for P450 2D6 inhibition (fluorescent AMMC substrate); format: in vitro ADME; settings: recombinant human P450 CYP2D6, AMMC substrate, 30 min
Protocol: The assay rapidly screen for potential inhibitors of human P450 2D6 catalytic activity, by using recombinant human P450 2D6. The IC50 determination is performed in duplicate at eight concentrations.
Incubations were conducted in 96 well microtiter plates based on a method described by BD Biosciences. To the first well in each row, a NADPH regenerating system and test compound was added. In the second well and all remaining wells, NADPH regenerating system and acetonitrile (final concentration of 2%) was added. The final assay concentration of the NADPH regenerating system was 8.2 μM NADP^+, 0.41 mM glucose-6-phosphate, 0.41 mM magnesium chloride hexahydrate and 0.4 U/ml glucose-6-phosphate dehydrogenase and 0.01 mg/mL control insect cell membrane protein. The test compound solution was serially diluted 1:3 through the eighth wells.
The final concentration of the test compounds were in the range 100 μM to 45.7 nM in the eight rows. Wells 9 and 10 contained no test compound (only NADPH regenerating system and enzyme/substrate mix) and wells 11 and 12 were used as controls for background fluorescence (enzyme and substrate were added after the reaction was terminated). The plate was then pre-incubated at 37° C. for 10 min, and the reaction was initiated by the addition of pre-warmed enzyme/substrate mix. The assay concentration of the enzyme/substrate mix was 100 mM potassium phosphate, pH 7.4, 1.5 pmol recombinant human P450 CYP2D6 and 1.5 μM of the fluorescent substrate 3-[2-(N,N diethyl-N-methylamino)ethyl]-7-methoxy-4-methylcounnarin (AMMC). The assay was conducted in duplicate in a final volume of 200 μL per well. Reactions were terminated after 30 min by addition of a 4:1, acetonitrile:0.5 M Tris base solution. Quinidine was used as positive control, 0.5 μM as highest concentration. Fluorescence per well was measured using a fluorescence plate reader (excitation: 390 nm, emission: 460 nm). The IC50 values were calculated.

[2] = test system: normal male Sprague Dawley rats; assay: In vivo test in normal rats (serum PTH and calcium); parameters: species or system rat; settings: for PTH suppression / Suppression of Ca^2+: 1 mg/kg p.o., single dose, 2 hours after dosing, compared to vehicle-treated animals; for ED50: Rattus norvegicus, 2 h, oral single doses, blood two hours thereafter, normal rats, read-out: ED50 with respect to PTH suppression
Protocol: Various compounds were administered to normal male Sprague Dawley rats in order to examine the pharmacological effect on serum levels of total calcium and parathyroid hormone (PTH). The experiments were performed by orally administering a single dose of the respective compounds as compared to vehicle-treated animals or animals treated with the competitor compound Cinacalcet.
As a standard, a group of six animals were treated orally with 1 mg/kg of compound as a 1% methylcellulose suspension and two hours thereafter, blood was obtained by retro-orbital bleeding under anaesthesia and the serum calcium and PTH levels were measured.
In some instances, rats were treated orally with various doses of a given compound in 1% methylcellulose (six rats/dose) and blood was obtained by retro-orbital bleeding two hours thereafter. Using the software GraphPad Prism® 5, ED50 values for Cinacalcet, Compound 1056, Compound 1186, and Compound 1190 with respect to PTH suppression were calculated to be 0.9 mg/kg, 0.1 mg/kg, 0.04 mg/kg, and 0.002 mg/kg, respectively.
For some compounds, rats were bled at several time-points after oral administration (six rats/time point), and suppression of serum PTH levels was observed over time.

[3] = test system: rat 5/6 nephrectomy model; assay: In vivo test using the 5/6 nephrectomy model in rats (secondary hyperparathyroidism); settings: 336 h, oral once daily for two weeks, 5/6 nephrectomized rats, read-out: ED50, PTH lowering effect
Excerpt: The lowering effect of different compounds on serum PTH was examined in vivo in the rat 5/6 nephrectomy model which is a widely accepted animal model of secondary hyperparathyroidism.
Two-third of the rats' (Sprague Dawley, at least 8 weeks old) left kidney was surgically removed followed by removal of the right kidney one week later.
After disease initiation, blood was obtained by retro-orbital bleeding and urine was collected using metabolic cages. Serum PTH, calcium, phosphorus, albumin, creatinine, and BUN as well as urinary creatinine and albumin were measured. Rats were then stratified into different treatment groups (9-12 rats/group) based on the results obtained. One group of normal rats without surgery served as control (“control”) and one group of nephrectomized rats treated with vehicle (1% Methylcellulose) was used as another control (“5/6 NEPX”). All other groups were treated orally with test compound at various doses once daily for two weeks and the above mentioned parameters were monitored weekly.

Chain of recombinant human P450 2D6 (P10635 whole entry): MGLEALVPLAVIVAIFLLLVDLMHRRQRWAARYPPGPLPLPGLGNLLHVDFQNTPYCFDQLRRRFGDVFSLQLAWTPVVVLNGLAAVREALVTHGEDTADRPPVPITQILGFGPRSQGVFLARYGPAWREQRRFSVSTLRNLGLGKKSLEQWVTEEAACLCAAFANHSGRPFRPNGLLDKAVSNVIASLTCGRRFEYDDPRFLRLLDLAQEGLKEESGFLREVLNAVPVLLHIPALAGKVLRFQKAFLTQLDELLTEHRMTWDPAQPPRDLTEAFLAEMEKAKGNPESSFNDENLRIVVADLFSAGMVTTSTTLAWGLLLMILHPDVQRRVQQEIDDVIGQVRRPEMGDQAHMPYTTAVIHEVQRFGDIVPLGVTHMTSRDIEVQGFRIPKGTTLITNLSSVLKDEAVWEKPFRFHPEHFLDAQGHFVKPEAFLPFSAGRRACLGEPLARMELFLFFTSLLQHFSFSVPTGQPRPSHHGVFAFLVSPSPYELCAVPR

| IC50 [1] [µM] | Compound | PTH suppression [2] [%] | Suppression of Ca^2+ [2] [%] | ED50 [2] [mg/kg] | ED50 [3] [mg/kg] |
| --- | --- | --- | --- | --- | --- |
| 10 | C[C@@H](NC1CCCC(c2ccc(C(=O)O)cc2)C1)c1cccc2ccccc12 (stereo partly drawn) [Compound 1056, 4-[3-((R)-1-naphthalen-1-yl-ethylamino)-cyclohexyl]-benzoic acid] | 85 | 1 | 0.1 | ~2 |
| 13 | C[C@@H](N[C@H]1CCC[C@H](c2ccc(C(=O)NCC(=O)O)cc2)C1)c1cccc2ccccc12 [Compound 1115, {4-[(1S,3S)-3-((R)-1-Naphthalen-1-yl-ethylamino)-cyclohexyl]-benzoylamino}-acetic acid] | 50 | 3 |  |  |
| 10 | C[C@@H](N[C@H]1CCC[C@H](c2ccc(C(=O)NCCC(=O)O)cc2)C1)c1cccc2ccccc12.Cl [Compound 1136, 3-{4-[(1S,3S)-3-((R)-1-Naphthalen-1-yl-ethylamino)-cyclohexyl]-benzoylamino}-propionic acid hydrochloride] | 61 | 7 |  |  |
| 25 | C[C@@H](N[C@H]1CCC[C@H](c2ccc(C(=O)N3CC(C(=O)O)C3)cc2)C1)c1cccc2ccccc12 [Compound 1142, 1-{4-[(1S,3S)-3-((R)-1-Naphthalen-1-yl-ethylamino)-cyclohexyl]-benzoyl}-azetidine-3-carboxylic acid] |  |  |  |  |
| 16 | C[C@@H](N[C@H]1CCC[C@H](c2ccc(C(=O)N3CCC(C(=O)O)CC3)cc2)C1)c1cccc2ccccc12 [Compound 1146, 1-{4-[(1S,3S)-3-((R)-1-Naphthalen-1-yl-ethylamino)-cyclohexyl]-benzoyl}-piperidine-4-carboxylic acid] | 84 | 0 |  |  |
| 50 | C[C@@H](N[C@H]1CC[C@@H](c2ccc(OCC(=O)O)cc2)C1)c1cccc2ccccc12 [Compound 1186, {4-[(1R,3S)-3-((R)-1-Naphthalen-1-yl-ethylamino)-cyclopentyl]-phenoxy}-acetic acid] | 98 | 6 | 0.04 | ~0.3 |
|  | C[C@@H](NC1CCC(c2ccc(OCC(=O)O)cc2)C1)c1cccc2ccccc12 (stereo partly drawn) [Compound 1188, {4-[3-((R)-1-Naphthalen-1-yl-ethylamino)-cyclopentyl]-phenoxy}-acetic acid] | 97 | 12 |  |  |
| 79 | C[C@@H](N[C@H]1CC[C@H](c2ccc(CCC(=O)O)cc2)C1)c1cccc2ccccc12.Cl [Compound 1190, 3-{4-[(1S,3S)-3-((R)-1-Naphthalen-1-yl-ethylamino)-cyclopentyl]-phenyl}-propionic acid hydrochloride] | 93 | 18.5 | 0.002 | ~0.01 |
| 100 | C[C@@H](NC1CC[C@H](c2ccc(C(=O)O)cc2)C1)c1cccc2ccccc12 (stereo partly drawn) [Compound 1338, 4-[3-((R)-1-Naphthalen-1-yl-ethylamino)-cyclopentyl]-benzoic acid] | 85 | 29 |  |  |

| Compound | IC50 [1] [µM] | PTH suppression [2] [%] | Suppression of Ca^2+ [2] [%] | ED50 [2] [mg/kg] | ED50 [3] [mg/kg] |
| --- | --- | --- | --- | --- | --- |
| C[C@@H](NCCCc1cccc(C(F)(F)F)c1)c1cccc2ccccc12 [Cinacalcet, reference compound] | 0.05 | 48 | 5 | 0.9 | ~20 |
